Source: the supplement of paper PMC8612539

System: Escherichia coli
Experiment: minimum inhibitory concentration (MIC)
Method: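 Broth microdilution MIC (Sensititre BOPO7F bovine plate, CLSI methods) of 19 antimicrobials against field isolates of P. multocida, M. haemolytica, H. somni (deep nasopharyngeal swabs) and E. coli, Enterococcus spp. (rectal swabs) from weaned dairy heifers. Incubation 16-24 h at 35 C. MIC is the lowest concentration preventing visible growth. Values with <= or > lie at the tested range limits. Trimethoprim-sulfamethoxazole is given as the trimethoprim component of a 1:19 mixture.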

COc1cc(NS(=O)(=O)c2ccc(N)cc2)nc(OC)n1 [sulfadimethoxine]
Settings | minimum inhibitory concentration [µg/mL]
isolate (source animal id): 8 | > 256
isolate (source animal id): 9 | > 256
isolate (source animal id): 10 | > 256
isolate (source animal id): 11 | ≤ 256
isolate (source animal id): 12 | > 256
isolate (source animal id): 13 | ≤ 256
isolate (source animal id): 14 | > 256
isolate (source animal id): 15 | ≤ 256
isolate (source animal id): 16 | > 256
isolate (source animal id): 98 | ≤ 256
isolate (source animal id): 99 | ≤ 256
isolate (source animal id): 100 | > 256
isolate (source animal id): 101 | > 256
isolate (source animal id): 102 | > 256
isolate (source animal id): 103 | > 256
isolate (source animal id): 104 | > 256
isolate (source animal id): 105 | > 256
isolate (source animal id): 106 | > 256
isolate (source animal id): 107 | > 256
isolate (source animal id): 108 | > 256
isolate (source animal id): 109 | ≤ 256
isolate (source animal id): 110 | > 256
isolate (source animal id): 111 | > 256
isolate (source animal id): 112 | > 256
isolate (source animal id): 113 | > 256
isolate (source animal id): 114 | ≤ 256
isolate (source animal id): 115 | > 256
isolate (source animal id): 116 | > 256
isolate (source animal id): 117 | > 256
isolate (source animal id): 118 | ≤ 256
isolate (source animal id): 119 | > 256
isolate (source animal id): 120 | > 256
isolate (source animal id): 121 | > 256
isolate (source animal id): 122 | > 256
isolate (source animal id): 123 | > 256
isolate (source animal id): 124 | > 256
isolate (source animal id): 125 | > 256
isolate (source animal id): 126 | > 256
isolate (source animal id): 127 | > 256
isolate (source animal id): 128 | > 256
isolate (source animal id): 129 | > 256
isolate (source animal id): 130 | > 256
isolate (source animal id): 131 | > 256
isolate (source animal id): 132 | > 256
isolate (source animal id): 133 | > 256
isolate (source animal id): 134 | > 256
isolate (source animal id): 135 | ≤ 256
isolate (source animal id): 136 | > 256
isolate (source animal id): 137 | ≤ 256
isolate (source animal id): 138 | > 256
isolate (source animal id): 139 | > 256
isolate (source animal id): 140 | ≤ 256
isolate (source animal id): 141 | > 256
isolate (source animal id): 142 | > 256
isolate (source animal id): 143 | > 256
isolate (source animal id): 144 | > 256
isolate (source animal id): 145 | > 256
isolate (source animal id): 146 | > 256
isolate (source animal id): 147 | > 256
isolate (source animal id): 148 | > 256
isolate (source animal id): 149 | > 256
isolate (source animal id): 150 | > 256
isolate (source animal id): 151 | > 256
isolate (source animal id): 152 | > 256
isolate (source animal id): 153 | > 256
isolate (source animal id): 154 | > 256
isolate (source animal id): 155 | > 256
isolate (source animal id): 156 | > 256
isolate (source animal id): 157 | > 256
isolate (source animal id): 158 | > 256
isolate (source animal id): 159 | > 256
isolate (source animal id): 160 | > 256
isolate (source animal id): 161 | > 256
isolate (source animal id): 162 | > 256
isolate (source animal id): 163 | > 256
isolate (source animal id): 164 | > 256
isolate (source animal id): 165 | > 256
isolate (source animal id): 166 | > 256
isolate (source animal id): 167 | > 256
isolate (source animal id): 168 | ≤ 256
isolate (source animal id): 169 | ≤ 256
isolate (source animal id): 170 | > 256
isolate (source animal id): 171 | ≤ 256
isolate (source animal id): 172 | ≤ 256
isolate (source animal id): 173 | > 256
isolate (source animal id): 174 | ≤ 256
isolate (source animal id): 175 | > 256
isolate (source animal id): 176 | > 256
isolate (source animal id): 177 | > 256
isolate (source animal id): 178 | > 256
isolate (source animal id): 179 | ≤ 256
isolate (source animal id): 180 | > 256
isolate (source animal id): 181 | > 256
isolate (source animal id): 182 | > 256
isolate (source animal id): 183 | > 256
isolate (source animal id): 184 | > 256
isolate (source animal id): 185 | > 256
isolate (source animal id): 186 | ≤ 256
isolate (source animal id): 187 | > 256
isolate (source animal id): 188 | > 256
